According to ChEMBL document CHEMBL4270599, “Synthesis of a 3'-C-ethynyl-β-d-ribofuranose purine nucleoside library: Discovery of C7-deazapurine analogs as potent antiproliferative nucleosides” (Eur J Med Chem, 2018):

Experiments:
IGROV-1 = assay: Growth inhibition of human IGROV1 cells assessed as cell growth at 10^-8 M incubated for 48 hrs by sulforhodamine B assay relative to control; type: functional; details: IGROV-1, 48 h, read-out: Activity
U-251 = assay: Growth inhibition of human U251 cells assessed as cell growth at 10^-5 M incubated for 48 hrs by sulforhodamine B assay relative to control; type: functional; details: U-251, 48 h, read-out: Activity
SF-268 = assay: Growth inhibition of human SF268 cells assessed as cell growth at 10^-6 M incubated for 48 hrs by sulforhodamine B assay relative to control; type: functional; details: SF-268, 48 h, read-out: Activity
RPMI-8226 = assay: Growth inhibition of human RPMI8226 cells assessed as cell growth at 10^-7 M incubated for 48 hrs by sulforhodamine B assay relative to control; type: functional; details: RPMI-8226, 48 h, read-out: Activity
PC-3 = assay: Growth inhibition of human PC3 cells assessed as cell growth at 10^-7 M incubated for 48 hrs by sulforhodamine B assay relative to control; type: functional; details: PC-3, 48 h, read-out: Activity
Hs-578T = assay: Growth inhibition of human Hs 578T cells assessed as cell growth at 10^-6 M incubated for 48 hrs by sulforhodamine B assay relative to control; type: functional; details: read-out: Activity
UACC-257 = assay: Growth inhibition of human UACC257 cells assessed as cell growth at 10^-5 M incubated for 48 hrs by sulforhodamine B assay relative to control; type: functional; details: UACC-257, 48 h, read-out: Activity
HT-29 = assay: Growth inhibition of human HT-29 cells assessed as cell growth at 10^-7 M incubated for 48 hrs by sulforhodamine B assay relative to control; type: functional; details: HT-29, 48 h, read-out: Activity
TK-10 [1] = assay: Cytotoxicity against human TK10 cells after 48 hrs by SRB assay; type: functional; details: TK-10, 48 h
SK-MEL-28 = assay: Cytotoxicity against human SK-MEL-28 cells after 48 hrs by SRB assay; type: functional; details: SK-MEL-28, 48 h
SR = assay: Growth inhibition of human SR cells assessed as cell growth at 10^-5 M incubated for 48 hrs by sulforhodamine B assay relative to control; type: functional; details: read-out: Activity
NCI-H322M = assay: Growth inhibition of human NCI-H322M cells assessed as cell growth at 10^-7 M incubated for 48 hrs by sulforhodamine B assay relative to control; type: functional; details: read-out: Activity
[2] = Antiproliferative activity against HELF cells after 4 days by Coulter counter method; type: cell-based; details: Homo sapiens, 96 h
SF-539 [3] = assay: Cytotoxicity against human SF539 cells after 48 hrs by SRB assay; type: functional; details: SF-539, 48 h
SK-MEL-2 = assay: Growth inhibition of human SK-MEL-2 cells assessed as cell growth at 10^-6 M incubated for 48 hrs by sulforhodamine B assay relative to control; type: functional; details: SK-MEL-2, 48 h, read-out: Activity
MCF7 = assay: Cytotoxicity against human MCF7 cells after 48 hrs by SRB assay; type: functional; details: MCF7, 48 h
TK-10 [4] = assay: Growth inhibition of human TK10 cells assessed as cell growth at 10^-6 M incubated for 48 hrs by sulforhodamine B assay relative to control; type: functional; details: TK-10, 48 h, read-out: Activity
SK-MEL-5 = assay: Growth inhibition of human SK-MEL-5 cells assessed as cell growth at 10^-7 M incubated for 48 hrs by sulforhodamine B assay relative to control; type: functional; details: SK-MEL-5, 48 h, read-out: Activity
TK-10 [5] = assay: Growth inhibition of human TK10 cells assessed as cell growth at 10^-4 M incubated for 48 hrs by sulforhodamine B assay relative to control; type: functional; details: TK-10, 48 h, read-out: Activity
TK-10 [6] = assay: Growth inhibition of human TK10 cells assessed as cell growth at 10^-8 M incubated for 48 hrs by sulforhodamine B assay relative to control; type: functional; details: TK-10, 48 h, read-out: Activity
SNB-19 = assay: Growth inhibition of human SNB19 cells assessed as cell growth at 10^-5 M incubated for 48 hrs by sulforhodamine B assay relative to control; type: functional; details: SNB-19, 48 h, read-out: Activity
HCT-15 = assay: Growth inhibition of human HCT15 cells assessed as cell growth at 10^-4 M incubated for 48 hrs by sulforhodamine B assay relative to control; type: functional; details: HCT-15, 48 h, read-out: Activity
SF-539 [7] = assay: Growth inhibition of human SF539 cells assessed as cell growth at 10^-7 M incubated for 48 hrs by sulforhodamine B assay relative to control; type: functional; details: SF-539, 48 h, read-out: Activity
SF-539 [8] = assay: Growth inhibition of human SF539 cells assessed as cell growth at 10^-6 M incubated for 48 hrs by sulforhodamine B assay relative to control; type: functional; details: SF-539, 48 h, read-out: Activity
NCI-H460 = assay: Cytotoxicity against human NCI-H460 cells after 48 hrs by SRB assay; type: functional; details: NCI-H460, 48 h
RXF 393 = assay: Growth inhibition of human RXF393 cells assessed as cell growth at 10^-6 M incubated for 48 hrs by sulforhodamine B assay relative to control; type: functional; details: RXF 393, 48 h, read-out: Activity
786-0 = assay: Growth inhibition of human 786-0 cells assessed as cell growth at 10^-6 M incubated for 48 hrs by sulforhodamine B assay relative to control; type: functional; details: 786-0, 48 h, read-out: Activity
OVCAR-8 = assay: Growth inhibition of human OVCAR8 cells assessed as cell growth at 10^-8 M incubated for 48 hrs by sulforhodamine B assay relative to control; type: functional; details: OVCAR-8, 48 h, read-out: Activity
MOLT-4 = assay: Growth inhibition of human MOLT4 cells assessed as cell growth at 10^-5 M incubated for 48 hrs by sulforhodamine B assay relative to control; type: functional; details: MOLT-4, 48 h, read-out: Activity
DU-145 = assay: Growth inhibition of human DU145 cells assessed as cell growth at 10^-8 M incubated for 48 hrs by sulforhodamine B assay relative to control; type: functional; details: DU-145, 48 h, read-out: Activity
HOP-62 = assay: Cytotoxicity against human HOP62 cells after 48 hrs by SRB assay; type: functional; details: HOP-62, 48 h
M14 = assay: Cytotoxicity against human M14 cells after 48 hrs by SRB assay; type: functional; details: M14, 48 h
[9] = read-out: LC50 (the source's name)
[10] = read-out: pLC50 (the source's name) (converted)

Question: Which growth at 0.01 µM (IGROV-1) does the source give for C#C[C@@]1(O)[C@@H](CO)O[C@@H](n2cc(F)c3c(N)ncnc32)[C@@H]1O here?
Answer: Its growth at 0.01 µM is 105%.

Question: And the growth at 10 µM (U-251)?
Answer: The growth at 10 µM was 1%.

Question: What about the growth at 1 µM (SF-268) of the same molecule?
Answer: Its growth at 1 µM is 42%.

Question: What about the growth at 0.1 µM (RPMI-8226) of the same molecule?
Answer: Its growth at 0.1 µM is 76%.

Question: And the growth at 0.1 µM (PC-3)?
Answer: The growth at 0.1 µM was 84%.

Question: And the growth at 1 µM (Hs-578T)?
Answer: Its growth at 1 µM is 97%.

Question: What about the growth at 10 µM (UACC-257) of the same molecule?
Answer: The growth at 10 µM was -17%.

Question: And the growth at 0.1 µM (HT-29)?
Answer: Its growth at 0.1 µM is 68%.

Question: What about the CC50 (TK-10 [1]; [9]) of the same molecule?
Answer: The CC50 was over 100 µM.

Question: And the TGI (TK-10 [1]; read-out: TGI)?
Answer: The TGI was 6.56 µM.

Question: What about the GI50 (TK-10 [1]; read-out: pGI50 (converted)) of the same molecule?
Answer: The GI50 was 0.741 µM.

Question: What about the TGI (TK-10 [1]; read-out: pTGI (converted)) of the same molecule?
Answer: The TGI was 6.61 µM.

Question: What about the TGI (SK-MEL-28; read-out: TGI) of the same molecule?
Answer: The TGI was over 100 µM.

Question: And the GI50 (SK-MEL-28; read-out: pGI50 (converted))?
Answer: Its GI50 is 4.27 µM.

Question: And the CC50 (SK-MEL-28; [10])?
Answer: The CC50 was over 100 µM.

Question: What about the TGI (SK-MEL-28; read-out: pTGI (converted)) of the same molecule?
Answer: Its TGI is over 100 µM.

Question: And the growth at 10 µM (SR)?
Answer: Its growth at 10 µM is 4%.

Question: And the growth at 0.1 µM (NCI-H322M)?
Answer: The growth at 0.1 µM was 94%.

Question: And the IC50 [2]?
Answer: Its IC50 is 0.076 µM.

Question: What about the CC50 (SF-539 [3]; [9]) of the same molecule?
Answer: Its CC50 is over 100 µM.

Question: What about the TGI (SF-539 [3]; read-out: TGI) of the same molecule?
Answer: The TGI was 5.29 µM.

Question: And the GI50 (SF-539 [3]; read-out: pGI50 (converted))?
Answer: The GI50 was 1.32 µM.

Question: And the TGI (SF-539 [3]; read-out: pTGI (converted))?
Answer: The TGI was 5.25 µM.

Question: What about the growth at 1 µM (SK-MEL-2) of the same molecule?
Answer: Its growth at 1 µM is 22%.

Question: What about the CC50 (MCF7; [9]) of the same molecule?
Answer: Its CC50 is over 100 µM.

Question: And the GI50 (MCF7; read-out: pGI50 (converted))?
Answer: The GI50 was 0.102 µM.

Question: And the growth at 1 µM (TK-10 [4])?
Answer: The growth at 1 µM was 42%.

Question: What about the growth at 0.1 µM (SK-MEL-5) of the same molecule?
Answer: Its growth at 0.1 µM is 78%.

Question: And the growth at 100 µM (TK-10 [5])?
Answer: The growth at 100 µM was -24%.

Question: And the growth at 0.01 µM (TK-10 [6])?
Answer: Its growth at 0.01 µM is 95%.

Question: What about the growth at 10 µM (SNB-19) of the same molecule?
Answer: Its growth at 10 µM is 7%.

Question: And the growth at 100 µM (HCT-15)?
Answer: The growth at 100 µM was -33%.

Question: And the growth at 0.1 µM (SF-539 [7])?
Answer: The growth at 0.1 µM was 107%.

Question: What about the growth at 1 µM (SF-539 [8]) of the same molecule?
Answer: The growth at 1 µM was 60%.

Question: And the CC50 (NCI-H460; [9])?
Answer: The CC50 was over 100 µM.

Question: What about the TGI (NCI-H460; read-out: TGI) of the same molecule?
Answer: The TGI was 10.2 µM.

Question: And the GI50 (NCI-H460; read-out: pGI50 (converted))?
Answer: The GI50 was 0.229 µM.

Question: What about the TGI (NCI-H460; read-out: pTGI (converted)) of the same molecule?
Answer: The TGI was 10.2 µM.

Question: What about the growth at 1 µM (RXF 393) of the same molecule?
Answer: Its growth at 1 µM is 42%.

Question: And the growth at 1 µM (786-0)?
Answer: The growth at 1 µM was 43%.

Question: What about the growth at 0.01 µM (OVCAR-8) of the same molecule?
Answer: Its growth at 0.01 µM is 96%.

Question: What about the growth at 10 µM (MOLT-4) of the same molecule?
Answer: Its growth at 10 µM is 2%.

Question: And the growth at 0.01 µM (DU-145)?
Answer: The growth at 0.01 µM was 103%.

Question: What about the TGI (HOP-62; read-out: TGI) of the same molecule?
Answer: Its TGI is 7.79 µM.

Question: What about the GI50 (HOP-62; read-out: pGI50 (converted)) of the same molecule?
Answer: Its GI50 is 0.575 µM.

Question: And the CC50 (HOP-62; [10])?
Answer: Its CC50 is over 100 µM.

Question: And the TGI (HOP-62; read-out: pTGI (converted))?
Answer: Its TGI is 7.76 µM.

Question: What about the CC50 (M14; [9]) of the same molecule?
Answer: The CC50 was over 100 µM.

Question: What about the TGI (M14; read-out: TGI) of the same molecule?
Answer: Its TGI is 2.39 µM.

Question: And the GI50 (M14; read-out: pGI50 (converted))?
Answer: The GI50 was 0.479 µM.

Question: What about the TGI (M14; read-out: pTGI (converted)) of the same molecule?
Answer: The TGI was 2.4 µM.
